# What was measured:
# [1] = Toxicity in CF1 mouse infected with asexual blood-stage (ABS) Plasmodium yoelii MRA-428 assessed as hunching at 0.3 to 30 mg/kg, po treated 24 hrs post infection measured after 4 days; assay type: organism-based; conditions: in vivo, 96 h, dose 0.3-30 mg/kg, time 4 day
# [2] = Toxicity in CF1 mouse infected with asexual blood-stage (ABS) Plasmodium yoelii MRA-428 assessed as hyperactivity at 0.3 to 30 mg/kg, po treated 24 hrs post infection measured after 4 days; assay type: organism-based; conditions: in vivo, 96 h, dose 0.3-30 mg/kg, time 4 day
# Plasmodium cynomolgi [3] = assay: (§1) Antiplasmodial activity against hypnozoite Plasmodium cynomolgi B strain infected in Macaca mulatta hepatocytes incubated with sporozoite containing salivary gland homogenate obtained from dissected Anopheles dirus mosquitoes (infected with Plasmodium cynomolgi B strain) treatment started on day 4 post infection and continued daily for 4 days into fresh changed media until day 8 assessed as Liver stage (LS) activity by measuring prophylactic mode by immunofluorescent staining analysis; assay type: functional, organism-based; conditions: Hepatocyte
# [4] = mouse, microsomes, 1 h
# [5] = as §1, with “Selectivity index, ratio of CC50 for Macaca mulatta hepatocytes to IC50 for antiplasmodial” for “Antiplasmodial”, “radical cure” for “prophylactic”; assay type: toxicity, cell-based; conditions: rhesus monkey, read-out: Selectivity Index
# [6] = Toxicity in CF1 mouse infected with asexual blood-stage (ABS) Plasmodium yoelii MRA-428 assessed as weight loss at 0.3 to 30 mg/kg, po treated 24 hrs post infection measured after 4 days; assay type: organism-based; conditions: in vivo, 96 h, dose 0.3-30 mg/kg, time 4 day
# Plasmodium cynomolgi [7] = assay: as §1, with “schizont” for “hypnozoite”, “radical cure” for “prophylactic”; assay type: functional, organism-based; conditions: Hepatocyte
# [8] = as §1, with “Selectivity index, ratio of CC50 for Macaca mulatta hepatocytes to IC50 for antiplasmodial” for “Antiplasmodial”, “schizont” for “hypnozoite”, “radical cure” for “prophylactic”; assay type: toxicity, cell-based; conditions: rhesus monkey, read-out: Selectivity Index
# [9] = Toxicity in CF1 mouse infected with asexual blood-stage (ABS) Plasmodium yoelii MRA-428 assessed as lethargy at 0.3 to 30 mg/kg, po treated 24 hrs post infection measured after 4 days; assay type: organism-based; conditions: in vivo, 96 h, dose 0.3-30 mg/kg, time 4 day
# Plasmodium falciparum [10] = assay: Antiplasmodial activity against asexual blood-stage (ABS) MDR Plasmodium falciparum Dd2 infected in human erythrocytes assessed as reduction in fluorescence measured after 72 hrs by Malaria SYBR Green I-based Fluorescence (MSF) assay; assay type: functional, organism-based; conditions: Dd2, Erythrocyte
# Plasmodium falciparum [11] = assay: Antiplasmodial activity against asexual blood-stage (ABS) ATV-resistant clinical isolate Plasmodium falciparum Tm90-C2B infected in human erythrocytes assessed as reduction in fluorescence measured after 72 hrs by Malaria SYBR Green I-based Fluorescence (MSF) assay; assay type: functional, organism-based; conditions: Erythrocyte
# Plasmodium falciparum [12] = assay: Antiplasmodial activity against asexual blood-stage (ABS) CQ-sensitive Plasmodium falciparum D6 infected in human erythrocytes assessed as reduction in fluorescence measured after 72 hrs by Malaria SYBR Green I-based Fluorescence (MSF) assay; assay type: functional, organism-based; conditions: D6, Erythrocyte
# [13] = Toxicity in CF1 mouse infected with asexual blood-stage (ABS) Plasmodium yoelii MRA-428 assessed as ruffled hair at 0.3 to 30 mg/kg, po treated 24 hrs post infection measured after 4 days; assay type: organism-based; conditions: in vivo, 96 h, dose 0.3-30 mg/kg, time 4 day
# HepG2 = assay: Cytotoxicity against human HepG2 cells assessed as cell viability measured after 48 hrs by MTT assay; assay type: functional, cell-based; conditions: HepG2, 48 h
# Plasmodium cynomolgi [14] = assay: as §1, with “schizont” for “hypnozoite”; assay type: functional, organism-based; conditions: Hepatocyte
# [15] = as §1, with “Selectivity index, ratio of CC50 for Macaca mulatta hepatocytes to IC50 for antiplasmodial” for “Antiplasmodial”, “schizont” for “hypnozoite”; assay type: toxicity, cell-based; conditions: rhesus monkey, read-out: Selectivity Index
# Hepatocyte = assay: Cytotoxicity against Macaca mulatta hepatocytes assessed as cell viability measured after 48 hrs by MTT assay; assay type: toxicity, cell-based; conditions: rhesus monkey, 48 h
# [16] = as §1, with “Selectivity index, ratio of CC50 for Macaca mulatta hepatocytes to IC50 for antiplasmodial” for “Antiplasmodial”; assay type: toxicity, cell-based; conditions: rhesus monkey, read-out: Selectivity Index
# Plasmodium cynomolgi [17] = assay: as §1, with “radical cure” for “prophylactic”; assay type: functional, organism-based; conditions: Hepatocyte
# [18] = human, microsomes, 1 h
SMILES,Activity [1],Activity [2],IC50 (Plasmodium cynomolgi [3]),CLH [4],selectivity ratio at 96 h [5],Activity [6],IC50 (Plasmodium cynomolgi [7]),selectivity ratio at 96 h [8],Activity [9],IC50 (Plasmodium falciparum [10]),IC50 (Plasmodium falciparum [11]),IC50 (Plasmodium falciparum [12]),Activity [13],IC50 (HepG2),IC50 (Plasmodium cynomolgi [14]),selectivity ratio at 96 h [15],CC50 (Hepatocyte),selectivity ratio at 96 h [16],IC50 (Plasmodium cynomolgi [17]),t1/2 [18]
O=c1c2c([nH]c3cccc(Oc4ccc(OC(F)(F)F)cc4)c13)CCCC2,Non-toxic,Non-toxic,7.62 µM,48 µL/min/mg,1.57,Non-toxic,2.92 µM,2.05,Non-toxic,> 2.5 µM,> 2.5 µM,> 2.5 µM,Non-toxic,> 200 µM,3.34 µM,1.79,6 µM,0.787,3.83 µM,
CCCN(CCC)CCCOc1ccc2c(=O)c3c([nH]c2c1)CCCC3,Non-toxic,Non-toxic,> 20 µM,> 500 µL/min/mg,,Non-toxic,14 µM,> 1.43,Non-toxic,0.126 µM,0.162 µM,0.108 µM,Non-toxic,> 200 µM,5.33 µM,> 3.75,> 20 µM,,> 20 µM,
CCN(CC)CCOc1ccc2c(=O)c3c([nH]c2c1)CCCC3,Non-toxic,Non-toxic,> 20 µM,> 500 µL/min/mg,,Non-toxic,> 20 µM,,Non-toxic,> 2.5 µM,> 2.5 µM,> 2.5 µM,Non-toxic,,14 µM,> 1.43,> 20 µM,,> 20 µM,> 1 h
O=c1c2c([nH]c3c(Oc4ccc(OC(F)(F)F)cc4)cccc13)CCCC2,Non-toxic,Non-toxic,13.1 µM,6.85 µL/min/mg,,Non-toxic,17.9 µM,> 1.12,Non-toxic,0.0838 µM,0.219 µM,0.0575 µM,Non-toxic,> 200 µM,7.63 µM,> 2.62,> 20 µM,> 1.53,> 20 µM,> 1 h
O=c1c2c([nH]c3cc(Nc4ccc(OC(F)(F)F)cc4)ccc13)CCCC2,Non-toxic,Non-toxic,1.09 µM,56 µL/min/mg,1.4,Non-toxic,1.4 µM,1.29,Non-toxic,0.00185 µM,0.00279 µM,0.000232 µM,Non-toxic,> 200 µM,0.21 µM,8.62,1.81 µM,1.66,1.29 µM,
O=c1c2c([nH]c3ccc(F)c(Oc4ccc(OC(F)(F)F)cc4)c13)CCCC2,Non-toxic,Non-toxic,7.32 µM,31.1 µL/min/mg,> 1.43,Non-toxic,> 20 µM,,Non-toxic,> 2.5 µM,> 2.5 µM,1.35 µM,Non-toxic,,7.4 µM,> 2.7,> 20 µM,> 2.73,14 µM,
CCN(CC)CCCOc1ccc2c(=O)c3c([nH]c2c1)CCCC3,Non-toxic,Non-toxic,> 20 µM,> 500 µL/min/mg,,Non-toxic,> 20 µM,,Non-toxic,> 2.5 µM,> 2.5 µM,> 2.5 µM,Non-toxic,,11 µM,> 1.82,> 20 µM,,> 20 µM,> 1 h
